The values below come from publication PMC2738925 (Transplantation, 2009).

This test addresses T1, mouse CXCR3 (Mus musculus, UniProt O88410).
T1 sequence (O88410 1-367): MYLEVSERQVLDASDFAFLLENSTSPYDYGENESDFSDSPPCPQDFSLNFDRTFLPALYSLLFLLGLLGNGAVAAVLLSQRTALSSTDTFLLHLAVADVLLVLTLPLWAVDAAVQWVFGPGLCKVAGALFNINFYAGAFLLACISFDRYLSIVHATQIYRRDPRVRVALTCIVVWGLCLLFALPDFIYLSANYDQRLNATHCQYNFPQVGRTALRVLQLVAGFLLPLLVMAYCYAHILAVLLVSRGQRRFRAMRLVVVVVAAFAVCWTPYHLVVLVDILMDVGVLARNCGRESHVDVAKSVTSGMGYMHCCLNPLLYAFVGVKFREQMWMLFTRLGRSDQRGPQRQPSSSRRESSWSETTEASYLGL
In words: […]-CXCL10 radioligand displacement on HEK […] cells transfected with mouse CXCR3. In kind it is cell-based. A general note: In a radioligand displacement assay an active substance lowers the binding of a labelled ligand.

AMG1237845 yielded a concentration for half-maximal inhibition (IC50) of 0.053 ± 0.007 µM.

In general, IC50 refers to the midpoint of a concentration-inhibition curve. A higher IC50 goes with weaker potency.
